What was measured:
Format in all cases: functional
786-0 [1] = test: inhibition of the growth of renal cancer(786-0) cell line; conditions: Homo sapiens
786-0 [2] = test: Inhibition of the growth of renal cancer(786-0) cell line at 0.01 uM; conditions: Homo sapiens
A549 [3] = test: inhibition of the growth of non-small-cell lung cancer (A549/ATCC) cell line; conditions: Homo sapiens
A549 [4] = test: Inhibition of the growth of non-small-cell lung cancer (A549/ATCC) cell line at 0.01 uM; conditions: Homo sapiens
CAKI-1 [5] = test: inhibition of the growth of renal cancer(CAKI-1) cell line; conditions: Homo sapiens
CAKI-1 [6] = test: Inhibition of the growth of renal cancer(CAKI-1) cell line at 0.01 uM; conditions: Homo sapiens
[7] = target: T1, Bifunctional dihydrofolate reductase-thymidylate synthase (Toxoplasma gondii, UniProt Q07422); test: Inhibitory activity against dihydrofolate reductase(DHFR) from Toxoplasma gondii
T1 sequence (Q07422 whole entry): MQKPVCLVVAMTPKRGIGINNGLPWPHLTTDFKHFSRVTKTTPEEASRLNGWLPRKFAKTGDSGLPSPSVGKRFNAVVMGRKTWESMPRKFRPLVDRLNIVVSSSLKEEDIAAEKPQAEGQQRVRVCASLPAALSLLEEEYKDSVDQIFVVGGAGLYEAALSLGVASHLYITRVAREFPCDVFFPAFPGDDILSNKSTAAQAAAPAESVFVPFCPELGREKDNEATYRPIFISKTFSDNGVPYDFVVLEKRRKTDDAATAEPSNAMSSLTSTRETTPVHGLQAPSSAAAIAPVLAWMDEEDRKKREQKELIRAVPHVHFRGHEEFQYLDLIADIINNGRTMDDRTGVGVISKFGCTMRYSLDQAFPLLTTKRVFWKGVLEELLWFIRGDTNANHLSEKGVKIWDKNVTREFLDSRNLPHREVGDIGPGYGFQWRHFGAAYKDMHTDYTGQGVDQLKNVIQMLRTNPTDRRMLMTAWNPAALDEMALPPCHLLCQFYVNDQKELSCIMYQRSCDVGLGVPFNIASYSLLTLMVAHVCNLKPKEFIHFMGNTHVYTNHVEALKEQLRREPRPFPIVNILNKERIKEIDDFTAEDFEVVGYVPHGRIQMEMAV

Dihydrofolate reductase = target: T2, Dihydrofolate reductase (Rattus norvegicus, UniProt Q920D2); test: Inhibitory activity against dihydrofolate reductase(DHFR) from rat liver
T2 sequence (Q920D2 whole entry): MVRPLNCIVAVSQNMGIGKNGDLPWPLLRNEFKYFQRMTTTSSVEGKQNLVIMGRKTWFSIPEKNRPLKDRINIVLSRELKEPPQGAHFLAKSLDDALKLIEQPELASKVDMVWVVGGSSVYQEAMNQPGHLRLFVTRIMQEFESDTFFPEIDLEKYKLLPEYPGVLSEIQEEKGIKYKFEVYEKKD

DU-145 [8] = test: Inhibition of the growth of prostate cancer(DU-145) cell line at 0.01 uM; conditions: Homo sapiens
DU-145 [9] = test: inhibition of the growth of prostate cancer(DU-145) cell line; conditions: Homo sapiens
HCT-15 [10] = test: Inhibition of the growth of colon cancer(HCT-15) cell line at 0.01 uM; conditions: Homo sapiens
HCT-15 [11] = test: inhibition of the growth of colon cancer(HCT-15) cell line; conditions: Homo sapiens
HCT-116 [12] = test: inhibition of the growth of colon cancer(HCT116) cell line; conditions: Homo sapiens
HCT-116 [13] = test: Inhibition of the growth of colon cancer(HCT116) cell line at 0.01 uM; conditions: Homo sapiens
IGROV-1 [14] = test: inhibition of the growth of ovarian cancer(IGROVI) cell line; conditions: Homo sapiens
KM12 = test: inhibition of the growth of colon cancer(KM-12) cell line. value in parentheses is percent inhibition at 0.01 uM; conditions: Homo sapiens
M14 [15] = test: Inhibition of the growth of melanoma cancer (M14) cell line at 0.01 uM; conditions: Homo sapiens
MOLT-4 = test: inhibition of the growth of leukemia (MOLT-4) cell line; conditions: Homo sapiens
NCI/ADR-RES [16] = test: inhibition of the growth of breast cancer (MCF7/ADR-RES) cell line; conditions: Homo sapiens
NCI/ADR-RES [17] = test: Inhibition of the growth of breast cancer (MCF7/ADR-RES) cell line at 0.01 uM; conditions: Homo sapiens
MDA-MB-435 [18] = test: Inhibition of the growth of breast cancer (MDA-MB-435) cell line; conditions: Homo sapiens
M14 [19] = test: inhibition of the growth of melanoma cancer (M14) cell line; conditions: Homo sapiens
MDA-N [20] = test: inhibition of the growth of breast cancer(MDA-N) cell line; conditions: Homo sapiens
MDA-N [21] = test: Inhibition of the growth of breast cancer(MDA-N) cell line at 0.01 uM; conditions: Homo sapiens
MDA-MB-435 [22] = test: Inhibition of the growth of breast cancer (MDA-MB-435) cell line at 0.01 uM; conditions: Homo sapiens
MCF7 = test: inhibition of the growth of breast cancer (MCF-7) cell line; conditions: Homo sapiens
NCI-H460 [23] = test: inhibition of the growth of non-small-cell lung cancer (NCI-H460) cell line; conditions: Homo sapiens
NCI-H522 [24] = test: inhibition of the growth of non-small-cell lung cancer (NCI-H522) cell line; conditions: Homo sapiens
NCI-H522 [25] = test: Inhibition of the growth of non-small-cell lung cancer (NCI-H522) cell line at 0.01 uM; conditions: Homo sapiens
NCI-H322M [26] = test: inhibition of the growth of non-small-cell lung cancer (NCI-H322M) cell line; conditions: Homo sapiens
NCI-H322M [27] = test: Inhibition of the growth of non-small-cell lung cancer (NCI-H322M) cell line at 0.01 uM; conditions: Homo sapiens
OVCAR-8 [28] = test: inhibition of the growth of ovarian cancer(OVCAR-8) cell line; conditions: Homo sapiens
NCI-H460 [29] = test: Inhibition of the growth of non-small-cell lung cancer (NCI-H460) cell line at 0.01 uM; conditions: Homo sapiens
NCI-H23 [30] = test: inhibition of the growth of non-small-cell lung cancer (NCI-H23) cell line; conditions: Homo sapiens
NCI-H23 [31] = test: Inhibition of the growth of non-small-cell lung cancer (NCI-H23) cell line at 0.01 uM; conditions: Homo sapiens
RPMI-8226 [32] = test: Inhibition of the growth of leukemia (RPMI-8226) cell line at 0.01 uM; conditions: Homo sapiens
RPMI-8226 [33] = test: inhibition of the growth of leukemia (RPMI-8226) cell line; conditions: Homo sapiens
SF-268 [34] = test: Inhibition of the growth of CNS cancer(SF-268) cell line at 0.01 uM; conditions: Homo sapiens
SF-268 [35] = test: inhibition of the growth of CNS cancer(SF-268) cell line; conditions: Homo sapiens
SF-295 [36] = test: inhibition of the growth of CNS cancer(SF-295) cell line; conditions: Homo sapiens
SF-295 [37] = test: Inhibition of the growth of CNS cancer(SF-295) cell line at 0.01 uM; conditions: Homo sapiens
SF-539 [38] = test: Inhibition of the growth of CNS cancer(SF-539) cell line at 0.01 uM; conditions: Homo sapiens
SNB-19 [39] = test: inhibition of the growth of CNS cancer(SNB-19) cell line; conditions: Homo sapiens
SNB-19 [40] = test: Inhibition of the growth of CNS cancer(SNB-19) cell line at 0.01 uM; conditions: Homo sapiens
SF-539 [41] = test: inhibition of the growth of CNS cancer(SF-539) cell line; conditions: Homo sapiens
SR [42] = test: inhibition of the growth of leukemia(SR) cell line; conditions: Homo sapiens
SR [43] = test: Inhibition of the growth of leukemia(SR) cell line at 0.01 uM; conditions: Homo sapiens
SK-MEL-5 [44] = test: inhibition of the growth of melanoma cancer (SK-MEL-5) cell line; conditions: Homo sapiens
SK-MEL-5 [45] = test: Inhibition of the growth of melanoma cancer (SK-MEL-5) cell line at 0.01 uM; conditions: Homo sapiens
UO-31 [46] = test: inhibition of the growth of renal cancer(UO-31) cell line; conditions: Homo sapiens
UO-31 [47] = test: Inhibition of the growth of renal cancer(UO-31) cell line at 0.01 uM; conditions: Homo sapiens
IGROV-1 [48] = test: Inhibition of the growth of ovarian cancer(IGROVI) cell line at 0.01 uM; conditions: Homo sapiens
OVCAR-8 [49] = test: Inhibition of the growth of ovarian cancer(OVCAR-8) cell line at 0.01 uM; conditions: Homo sapiens

GI50 (786-0 [1]): < 10 nM | GI50 (A549 [3]): < 10 nM | IC50 (Dihydrofolate reductase): 9.9 nM | GI50 (DU-145 [9]): < 10 nM | GI50 (HCT-15 [11]): < 10 nM | GI50 (HCT-116 [12]): < 10 nM | GI50 (MOLT-4): 20 nM | GI50 (MDA-MB-435 [18]): < 10 nM | GI50 (MCF7): 30 nM | GI50 (NCI-H460 [23]): < 10 nM | GI50 (NCI-H522 [24]): < 10 nM | GI50 (NCI-H322M [26]): < 10 nM | GI50 (OVCAR-8 [28]): < 10 nM | GI50 (NCI-H23 [30]): < 10 nM | GI50 (RPMI-8226 [33]): < 10 nM | GI50 (SK-MEL-5 [44]): < 10 nM
Compound: CN(c1ccc2ccccc2c1)c1ccc2nc(N)nc(N)c2n1
inhibition at 0.01 µM (786-0 [2]): 54% | inhibition at 0.01 µM (A549 [4]): 65% | GI50 (CAKI-1 [5]): < 10 nM | inhibition at 0.01 µM (CAKI-1 [6]): 74% | IC50 [7]: 14.5 nM | inhibition at 0.01 µM (DU-145 [8]): 51% | inhibition at 0.01 µM (HCT-15 [10]): 69% | inhibition at 0.01 µM (HCT-116 [13]): 85% | GI50 (IGROV-1 [14]): < 10 nM | GI50 (KM12): 10 nM | inhibition at 0.01 µM (M14 [15]): 54% | GI50 (NCI/ADR-RES [16]): < 10 nM | inhibition at 0.01 µM (NCI/ADR-RES [17]): 100% | GI50 (M14 [19]): < 10 nM | GI50 (MDA-N [20]): < 10 nM | inhibition at 0.01 µM (MDA-N [21]): 75% | inhibition at 0.01 µM (MDA-MB-435 [22]): 66% | inhibition at 0.01 µM (NCI-H522 [25]): 60% | inhibition at 0.01 µM (NCI-H322M [27]): 56% | inhibition at 0.01 µM (NCI-H460 [29]): 79% | inhibition at 0.01 µM (NCI-H23 [31]): 63% | inhibition at 0.01 µM (RPMI-8226 [32]): 66% | inhibition at 0.01 µM (SF-268 [34]): 52% | GI50 (SF-268 [35]): < 10 nM | GI50 (SF-295 [36]): < 10 nM | inhibition at 0.01 µM (SF-295 [37]): 63% | inhibition at 0.01 µM (SF-539 [38]): 66% | GI50 (SNB-19 [39]): < 10 nM | inhibition at 0.01 µM (SNB-19 [40]): 62% | GI50 (SF-539 [41]): < 10 nM | GI50 (SR [42]): < 10 nM | inhibition at 0.01 µM (SR [43]): 57% | inhibition at 0.01 µM (SK-MEL-5 [45]): 77% | GI50 (UO-31 [46]): < 10 nM | inhibition at 0.01 µM (UO-31 [47]): 54% | inhibition at 0.01 µM (IGROV-1 [48]): 65% | inhibition at 0.01 µM (OVCAR-8 [49]): 95%
